Assay results reported in US8637501B2, “Azinone-substituted azepino[b]indole and pyrido-pyrrolo-azepine MCH-1 antagonists, methods of making, and use thereof” (Albany Molecular Research, Inc., priority 2009, dated 2014).
Structures can show the parent of a compound that is named as a salt.

What follows are compounds tested against human MCH-1 receptor (Homo sapiens (Human), UniProt Q99705) (assay: Binding Assay for Human Melanin-Concentrating Hormone (MCH-1) Receptor). Settings: radioligand displacement, membranes from CHO-K1 cells expressing human MCH-1 receptor; Ki from IC50 by Cheng Prusoff equation; read-out: MCH1 Ki.
Chain of human MCH-1 receptor (Q99705 whole entry): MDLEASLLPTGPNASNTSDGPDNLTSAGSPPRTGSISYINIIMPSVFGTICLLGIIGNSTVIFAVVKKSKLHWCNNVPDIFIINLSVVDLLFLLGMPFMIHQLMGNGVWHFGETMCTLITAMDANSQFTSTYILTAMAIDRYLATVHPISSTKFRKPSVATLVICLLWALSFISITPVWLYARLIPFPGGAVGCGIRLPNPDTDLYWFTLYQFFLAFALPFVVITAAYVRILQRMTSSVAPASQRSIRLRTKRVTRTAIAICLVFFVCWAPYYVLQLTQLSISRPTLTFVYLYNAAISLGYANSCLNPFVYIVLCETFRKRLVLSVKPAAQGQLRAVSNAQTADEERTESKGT
Protocol: Binding Assay for Human Melanin-Concentrating Hormone (MCH-1) Receptor
Evaluation of the affinity of compounds for the human MCH-1 receptor was accomplished using 4-(3,4,5-tritritiumbenzyloxy)-1-(1-(2-(pyrrolidin-1-yl)ethyl)-1H-indazol-5-yl)pyridin-2(1H)-one and membranes prepared from stable CHO-K1 cells expressing the human MCH-1 receptor obtained from Euroscreen (Batch 1138). Cell membrane homogenates (8.92 μg protein) were incubated for 60 min at 25° C. with 1.4 nM of the [^3H]-labeled compound in the absence or presence of the test compound in 50 mM Tris-HCl buffer, pH 7.4. Nonspecific binding was determined in the presence of 50 μM 1-(5-(4-cyanophenyl)bicyclo[3.1.0]hexan-2-yl)-3-(4-fluoro-3-(trifluoromethyl)phenyl)-1-(3-(4-methylpiperazin-1-yl)propyl)urea. Following incubation, the samples were filtered rapidly under vacuum through Skatron 11731 filters, pre-soaked in 0.5% polyethylenimine, and washed with ice-cold 50 mM Tris-HCl buffer, pH 7.4, (wash setting 9,9,0) using a Skatron cell harvester. The filters were counted for radioactivity in a liquid scintillation counter (Tri-Carb 2100TR, Packard) using a scintillation cocktail (Ultima Gold MV, Perkin Elmer).
The results are expressed as a percent inhibition of the control radioligand specific binding. The IC50 value (concentration causing a half-maximal inhibition of control specific binding) and Hill coefficient (nH) were determined by non-linear regression analysis of the competition curve using Hill equation curve fitting. The inhibition constant (Ki) was calculated from the Cheng Prusoff equation: (Ki=IC50/(1+(L/KD)), where L=concentration of radioligand in the assay, and KD=affinity of the radioligand for the receptor.

Row | Structure (SMILES) | Ki [nM]
1 | Cn1c2c(c3ccc(-n4ccc(-c5ccc(C(F)(F)F)nn5)cc4=O)cc31)CCNCC2 [Example 2, 1-(6-Methyl-1,2,3,4,5,6-hexahydroazepino[4,5-b]indol-8-yl)-4-(6-(trifluoromethyl)pyridazin-3-yl)pyridin-2(1H)-one dihydrochloride] | 14.4
2 | Cn1c2c(c3ccc(-n4ccc(-c5ccc(C(F)(F)F)cn5)cc4=O)cc31)CCNCC2 [Example 3, 1-(6-Methyl-1,2,3,4,5,6-hexahydroazepino[4,5-b]indol-8-yl)-4-(5-(trifluoromethyl)pyridin-2-yl)pyridin-2(1H)-one dihydrochloride] | 10.1
3 | Cn1c2c(c3ccc(-n4ccc(-c5ccc(C(F)(F)F)nc5)cc4=O)cc31)CCNCC2 [Example 4, 1-(6-Methyl-1,2,3,4,5,6-hexahydroazepino[4,5-b]indol-8-yl)-4-(6-(trifluoromethyl)pyridin-3-yl)pyridin-2(1H)-one dihydrochloride] | 7.1
4 | Cn1c2c(c3ccc(-n4ccc(OCc5ccc(C(F)(F)F)nc5)cc4=O)cc31)CCNCC2 [Example 5, 1-(6-Methyl-1,2,3,4,5,6-hexahydroazepino[4,5-b]indol-8-yl)-4-((6-(trifluoromethyl)pyridin-3-yl)methoxy)pyridin-2(1H)-one dihydrochloride] | 11.8
5 | Cn1c2c(c3ccc(-n4ccc(-c5cnc(C(F)(F)F)nc5)cc4=O)cc31)CCNCC2 [Example 6, 1-(6-Methyl-1,2,3,4,5,6-hexahydroazepino[4,5-b]indol-8-yl)-4-(2-(trifluoromethyl)pyrimidin-5-yl)pyridin-2(1H)-one dihydrochloride] | 131
6 | O=c1cc(-c2ccc(C(F)(F)F)nn2)ccn1-c1ccc2c3c([nH]c2c1)CCNCC3 [Example 8, 1-(1,2,3,4,5,6-Hexahydroazepino[4,5-b]indol-8-yl)-4-(6-(trifluoromethyl)pyridazin-3-yl)pyridin-2(1H)-one dihydrochloride] | 148
7 | O=c1cc(-c2ccc(C(F)(F)F)cn2)ccn1-c1ccc2c3c([nH]c2c1)CCNCC3 [Example 9, 1-(1,2,3,4,5,6-Hexahydroazepino[4,5-b]indol-8-yl)-4-(5-(trifluoromethyl)pyridin-2-yl)pyridin-2(1H)-one dihydrochloride] | 1370
8 | Cn1c2c(c3ccc(-n4ncc(OCc5ccc(F)cn5)cc4=O)cc31)CCNCC2 [Example 10, 5-((5-Fluoropyridin-2-yl)methoxy)-2-(6-methyl-1,2,3,4,5,6-hexahydroazepino[4,5-b]indol-8-yl)pyridazin-3(2H)-one dihydrochloride] | 13.4
9 | Cc1ccc(-c2ccn(-c3ccc4c5c(n(C)c4c3)CCNCC5)c(=O)c2)cn1 [Example 11, 1-(6-Methyl-1,2,3,4,5,6-hexahydroazepino[4,5-b]indol-8-yl)-4-(6-methylpyridin-3-yl)pyridin-2(1H)-one dihydrochloride] | 49
10 | O=c1cc(-c2ccc(C(F)(F)F)cc2)ccn1-c1ccc2c3c([nH]c2c1)CCNCC3 [Example 12, 1-(1,2,3,4,5,6-Hexahydroazepino[4,5-b]indol-8-yl)-4-(4-(trifluoromethyl)phenyl)pyridin-2(1H)-one hydrochloride] | 11.4
11 | O=c1cc(OCc2ccc(F)cn2)ccn1-c1ccc2c3c([nH]c2c1)CCNCC3 [Example 13, 4-((5-Fluoropyridin-2-yl)methoxy)-1-(1,2,3,4,5,6-hexahydroazepino[4,5-b]indol-8-yl)pyridin-2(1H)-one dihydrochloride] | 10.3
12 | CC(C)N1CCc2c(n(C)c3cc(-n4ccc(OCc5ccc(F)cn5)cc4=O)ccc23)CC1 [Example 16, 4-((5-Fluoropyridin-2-yl)methoxy)-1-(3-isopropyl-6-methyl-1,2,3,4,5,6-hexahydroazepino[4,5-b]indol-8-yl)pyridin-2(1H)-one hydrochloride] | 13.7
13 | Cl.Cn1c2c(c3ccc(-n4ccc(-c5ccc(C(F)(F)F)cn5)cc4=O)cc31)CCCNC2 [Example 20, 1-(10-Methyl-1,2,3,4,5,10-hexahydroazepino[3,4-b]indol-8-yl)-4-(5-trifluoromethyl)pyridin-2-yl)pyridin-2(1H)-one hydrochloride] | 242
14 | Cn1c2c(c3ccc(-n4ccc(OCc5ccc(F)cn5)cc4=O)cc31)CNCCC2 [Example 22, 4-((5-Fluoropyridin-2-yl)methoxy)-1-(6-methyl-1,2,3,4,5,6-hexahydroazepino[4,3-b]indol-8-yl)-)pyridin-2(1H)-one hydrochloride] | 11.2
15 | Cn1c2c(c3ccc(-n4ccc(OCc5ccc(C(F)(F)F)nc5)cc4=O)cc31)CNCCC2 [Example 24, 1-(6-Methyl-1,2,3,4,5,6-hexahydroazepino[4,3-b]indol-8-yl)-4-((6-(trifluoromethyl)pyridin-3-yl)methoxy)pyridin-2(1H)-one hydrochloride] | 6.4
16 | Cn1c2c(c3ccc(-n4ccc(-c5cnc(C(F)(F)F)nc5)cc4=O)cc31)CNCCC2 [Example 25, 1-(6-Methyl-1,2,3,4,5,6-hexahydroazepino[4,3-b]indol-8-yl)-4-(2-(trifluoromethyl)pyrimdin-5-yl)pyridin-2(1H)-one hydrochloride] | 42.3
17 | Cl.Cn1c2c(c3ccc(-n4ccc(-c5ccc(C(F)(F)F)cc5)cc4=O)cc31)CNCCC2 [Example 26, 1-(6-Methyl-1,2,3,4,5,6-hexahydroazepino[4,3-b]indol-8-yl)-4(4-trifluoromethyl)phenyl)pyridin-2(1H)-one hydrochloride] | 6.1
18 | CN1CCCc2c(c3ccc(-n4ccc(OCc5ccccc5)cc4=O)cc3n2C)C1 [Example 29, 4-(Benzyloxy)-1-(2,6-dimethyl-1,2,3,4,5,6-hexahydroazepino[4,3-b]indol-8-yl)pyridin-2(1H)-one hydrochloride] | 5
19 | CCN1CCCc2c(c3ccc(-n4ccc(OCc5ccccc5)cc4=O)cc3n2C)C1 [Example 30, 4-(Benzyloxy)-1-(2-ethyl-6-methyl-1,2,3,4,5,6-hexahydroazepino[4,3-b]indol-8-yl)pyridin-2(1H)-one hydrochloride] | 5
20 | CC(C)N1CCCc2c(c3ccc(-n4ccc(OCc5ccccc5)cc4=O)cc3n2C)C1 [Example 31, 4-(Benzyloxy)-1-(2-isopropyl-6-methyl-1,2,3,4,5,6-hexahydroazepino[4,3-b]indol-8-yl)pyridin-2(1H)-one hydrochloride] | 9.4
21 | Cc1ccc(COc2ccn(-c3ccc4c5c(n(C)c4c3)CCCNC5)c(=O)c2)cn1 [Example 34, 1-(6-Methyl-1,2,3,4,5,6-hexahydroazepino[4,3-b]indol-8-yl)-4-((6-methylpyridin-3-yl)methoxy)pyridin-2(1H)-one hydrochloride] | 10.6
22 | O=c1cc(OCc2ccccc2)ccn1-c1ccc2c3c([nH]c2c1)CCCNC3 [Example 35, 4-(Benzyloxy)-1-(1,2,3,4,5,6-hexahydroazepino[4,3-b]indol-8-yl)pyridin-2(1H)-one hydrochloride] | 5.8
23 | Cn1c2c(c3ccc(-n4ncc(OCc5ccc(F)cn5)cc4=O)cc31)CNCCC2 [Example 39, 5-((5-Fluoropyridin-2-yl)methoxy)-2-(6-methyl-1,2,3,4,5,6-hexahydroazepino[4,3-b]indol-8-yl)pyridazin-3(2H)-one hydrochloride] | 16.8
